The conditions of data set [1]: cited from earlier work.
For data set [2], the system named is peripheral blood mononuclear cells (PBMCs). Briefly: NASBA ratio of mitochondrial RNA to chromosome-encoded RNA in cultured PBMCs. The format is cell-based, human (healthy blood donor). Here is the method: (§1) In Table 1, the primers and probes used in the examples are summarized. Standard NASBA nucleic acid amplification reactions were performed in a 20 μl reaction volume and contained: 40 mM Tris-pH 8.5, 70 mM KCl, 12 mM MgCl2, 5 mM dithiothreitol, 1 mM dNTPs (each), 2 mM rNTPs (each), 0.2 μM primer (each), 0.05 μM molecular beacon, 375 mM sorbitol, 0.105 μg/μl bovine serum albumin, 6.4 units AMV RT, 32 units T7 RNA polymerase, 0.08 units RNAse H and input nucleic acid. The complete mixture, except the enzymes, sorbitol and/or bovine serum albumin was, prior to adding the enzyme mixture, heated to 65° C. for two minutes in order to denature any secondary structure in the RNA and to allow the primers to anneal. After cooling the mixture to 41° C., the enzymes were added. The amplification took place at 41° C. for 90 minutes in a fluorimeter (CytoFluor 2000) and the fluorescent signal was measured every minute (using the filter set 530/25 nm and 485/30 nm). For amplification of DNA target sequences, the 65° C. denaturation step was replaced with a 95° C. denaturation step for two to five minutes.
To achieve quantification, a dilution series of target sequences for a particular primer set was amplified and the time points at which the reactions became positive (the time to positivity, TTP) were plotted against the input amounts of nucleic acid. This way a calibration curve was created that could be used to read TTP values of reactions with unknown amounts of input and deduce the input amount.
Cells (fibroblasts and PBMCs) were cultured under standard conditions in standard media known to persons skilled in the art with the addition of drugs or putative toxic or stimulating compounds as defined in the examples. […] A small aliquot of the isolated nucleic acid was analyzed on an agarose gel and the remainder stored at −80° C. until further analysis. […]

Data set [3] shares this test system. Briefly: NASBA ratio of mitochondrial DNA to chromosomal DNA in cultured PBMCs. The format is cell-based. The note with it: culture period of five days, 6 μM and 60 μM. Here is the method:
as §1, with “For amplification of DNA target sequences, the 65° C. denaturation step was replaced with a 95° C. denaturation step for two to five minutes.” left out
To achieve quantification, a dilution series of target sequences for a particular primer set was amplified and the time points at which the reactions became positive (the time to positivity, TTP) were plotted against the input amounts of nucleic acid. This way a calibration curve was created that could be used to read TTP values of reactions with unknown amounts of input and deduce the input amount. […]

In data set [4] the test system is PBMC of patients. Briefly: Mitochondrial DNA content per PBMC of HIV-1 infected patients on antiviral therapy (duplex NASBA). It is filed as in vivo, human (HIV-1 infected patients). The note with it: for Mitochondrial DNA content in PBMC (per cell), Median / % decrease in mitochondrial DNA content of PBMC: patients. As for the experimental part:
Different ratios of mitochondrial and chromosomal DNA targets in plasmids were analyzed in this example: 2×10^3 U1a DNA/8×10^3 Mt DNA, 2×10^3 U1a DNA/2×10^4 MtDNA, 2×10^3 U1a DNA/4×10^4 Mt DNA, 2×10^3 U1a DNA/10^5 Mt DNA, 2×10^3 U1a DNA/2×10^5 Mt DNA, 2×10^3 U1a DNA/4×10^5 Mt DNA, and 2×10^3 U1a DNA/8×10^5 Mt DNA molecules were included. A reaction mix was prepared similar to that of Example 12, except that primers and beacons differed in order to amplify chromosomal and mitochondrial DNA in one tube. The reaction mix (duplex-mix) contained two sets of primers and beacons: SnrpD P1 and SnrpD2 P2 (first primer set, each 0.2 μM), and MtD P1—2 and MtD P2—2 (second primer set, each 0.3 μM) with beacons SnrpD mb—2 (FAM-labeled) and MtD mb—3 (ROX-labeled) (each 0.04 μM). See Table 1 for primer and, probe sequences. Restriction enzyme digestion, amplification, and detection were performed as in Example 12. Filter sets of the fluorimeter (CytoFluor 2000 or EasyQ analyzer) were adapted to simultaneously measure the FAM and the ROX-label (485/20 and 530/25 for FAM; 590/20 and 645/40 for ROX). In a duplex reaction with two competing amplifications, the ratio of the slope of the curves of fluorescence in time is proportional to the ratio of the amount of molecules of each amplified species. The relation between the ratio of the slopes of FAM and ROX signal is linear to the ratio of mitochondrial DNA and chromosomal DNA in the input.
Forty-eight HIV-1 infected patients were randomized for antiviral therapy with either AZT, AZT+ddI, or AZT+ddC. Blood was drawn at week 0, 4, 24, and 48 after the start of therapy. The blood was used to prepare peripheral blood mononuclear cells (PBMC) by Ficoll-Isopaque purification. PBMC were viably frozen in medium plus 5% DMSO and stored in liquid nitrogen until use.
Nucleic acids were extracted from 10^5 PBMC using the Boom method. Nucleic acids equivalent of 1,000 PBMC were used as input for the one-tube real-time duplex-NASBA that measures both mitochondrial and chromosomal DNA as described in Example 17. The result of this assay is expressed as the mitochondrial DNA content per cell (i.e., PBMC) of the patient sample.
The mtDNA content of the PBMC of the patients at start of therapy was compared to the mtDNA content at week 4, 24, and 48 and analyzed for statistically significant changes (see Table 3 and FIGS. 20 and 21).

SMILES strings stand for the structures.

Turning to `Cc1cn([C@H]2C[C@H](N=[N+]=[N-])[C@@H](CO)O2)c(=O)[nH]c1=O` [AZT], in data set [1] (Dilated cardio-myopathy), the “Rate (%) of mitochondrial toxicity, affected organ Heart” value is “Rare”. In data set [1] (Fatigue, myalgia, proximal weakness, wasting, Creatine kinase ↑), the “Rate (%) of mitochondrial toxicity, affected organ Muscle” value was 17%. Besides, the “change in ratio of mitochondrial RNA to chromosome-encoded RNA” value in data set [2] (culture period of five days, 6 μM and 60 μM) is “no measurable change”. In addition, in data set [3], the “change in ratio of mitochondrial DNA to chromosomal DNA” value is listed as “no measurable change”. Besides, the “Mitochondrial DNA content in PBMC (per cell), Median” value is listed as 196 in data set [4] (week 0 (start of therapy)), 157 in data set [4] (week 4 of therapy), 182 in data set [4] (week 24 of therapy) and 155 in data set [4] (week 48 of therapy). For the same compound, the entries for the “% decrease in mitochondrial DNA content of PBMC” value in data set [4] (week 4 compared to start of therapy), in data set [4] (week 24 compared to start of therapy) and in data set [4] (week 48 compared to start of therapy) were 11%, 1% and 5%, respectively.
`Nc1ccn([C@H]2CC[C@@H](CO)O2)c(=O)n1` [ddC]: the “decline in PBMCs of mitochondrial RNA per cell” value in data set [2] (five-day culture period, highest concentration of ddC used, FIG. 10) is “do not clearly show a decline”. The “change in the mitochondrial DNA content of patients' PBMC under therapy” value in data set [4] (human, in vivo) was “significant decline”.
